Results from patent publication EP4682146A1, “COMPOSITION INCLUDING NOVEL PYRIDOINDOLE DERIVATIVE COMPOUND AS ACTIVE INGREDIENT FOR PREVENTION OR TREATMENT OF NEURODEGENERATIVE DISEASES” (Neurotarge Co., Ltd., priority 2023, dated 2024).

What was measured:
[1] = system: TtgA / PTtgR phloretin-inducible gene expression system; experiment: Phloretin-regulated EGFP expression (pTK269: PCAG-TtgA and pTK274: PTtgR-EGFP) in HEK293T; format: cell-based, Human; conditions: HEK293T co-transfected with pTK269 and pTK274, 0 - 50 µM phloretin, 48 hours
Method: • FIG. 1 is a fluorescence microscopy image of the HEK293T cell line transfected with EGFP-fused Tau (pTK231: P(CMV)-Tau-EGFP) and Synaptogyrin 3 (pTK233:P(CMV)-EGFP-Synaptogyrin 3), showing the expression of both proteins 48 hours after transfection. • FIG. 2a is a schematic of the Protein Complementary Assay (PCA) process using the split luciferase method. Split luciferase consists of two fragments of the luciferase enzyme: a small bit (sBit) and a large bit (Lbit). […] Therefore, by fusing each fragment of the split luciferase to Tau and Synaptogyrin3, luciferase activity may be induced as a result of the interaction between Tau and Synaptogyrin3. […] The system includes a synthetic transcriptional activator, TtgA, and a synthetic promoter, PTtgR, prepared based on the flavonoid-regulated TtgR operon of the Pseudomonas putida DOT-T1E strain. In the absence of phloretin, TtgA binds to PTtgR and activates transcription (without phloretin), while in the presence of phloretin, TtgA dissociates from DNA and transcription is not activated (with phloretin). […] In the stable cell line HEK293T-TK252 expressing Lbit-Tau and sBit-Synaptogyrin3, expression of Tau protein to which split luciferase is not fused, can lead to a decrease in luciferase signal. […]

[2] = system: Tau-Synaptogyrin3 interaction; experiment: Tau competition assay with phloretin-inducible Tau expression in HEK293T-TK252 clones, luciferase activity; format: cell-based, Human; conditions: clone 1E2 co-transfected with pTK269 and pTK285, 0, 10 and 50 µM phloretin, 48 hours
Method: • FIG. 1 is a fluorescence microscopy image of the HEK293T cell line transfected with EGFP-fused Tau (pTK231: P(CMV)-Tau-EGFP) and Synaptogyrin 3 (pTK233:P(CMV)-EGFP-Synaptogyrin 3), showing the expression of both proteins 48 hours after transfection. • FIG. 2a is a schematic of the Protein Complementary Assay (PCA) process using the split luciferase method. Split luciferase consists of two fragments of the luciferase enzyme: a small bit (sBit) and a large bit (Lbit). […] Therefore, by fusing each fragment of the split luciferase to Tau and Synaptogyrin3, luciferase activity may be induced as a result of the interaction between Tau and Synaptogyrin3. […] The system includes a synthetic transcriptional activator, TtgA, and a synthetic promoter, PTtgR, prepared based on the flavonoid-regulated TtgR operon of the Pseudomonas putida DOT-T1E strain. In the absence of phloretin, TtgA binds to PTtgR and activates transcription (without phloretin), while in the presence of phloretin, TtgA dissociates from DNA and transcription is not activated (with phloretin). […]
Live cell luciferase assay: Live cell luciferase activity was measured using NanoGlo® Live Cell Assay System (Cat# N2012. Promega, WI, USA), according to manufacturer's instruction. […]

## O=C(CCc1ccc(O)cc1)c1c(O)cc(O)cc1O [phloretin]
[1]
  EGFP signal, difference between 0 and 50 µM treatment: 4 fold
[2]
  luciferase activity, difference between 0 and 50 µM treatment: 2 fold
